# Assays:
# [1] = tested on: CCRF S-180; assay: Antitumor activity against mouse S180 cells xenografted in rat; format: functional
# [2] = Antitumor activity against mouse EAC cells xenografted in rat; format: functional, Ehrlich
# [3] = tested on: HCT-116; assay: Cytotoxicity against human HCT116 cells; format: functional, cell-based
# [4] = Inhibition of sunflower S-adenosyl-L-methionine-C-24 methyltransferase; design: species or system Helianthus annuus
# [5] = tested on: CCRF S-180; assay: Antitumor activity against mouse S180 cells implanted in ip dosed ddY mouse assessed as tumor volume after 7 days; format: functional
# [6] = tested on: Mus musculus; assay: Toxicity in ip dosed ddY mouse bearing mouse S180 cells; format: organism-based, CCRF S-180; conditions: in vivo
# [7] = tested on: Escherichia coli; assay: Antimicrobial activity against Escherichia coli BE1126; format: functional
# [8] = tested on: Proteus vulgaris; assay: Antimicrobial activity against Proteus vulgaris OX19; format: functional
# [9] = tested on: Shigella dysenteriae; assay: Antimicrobial activity against Shigella dysenteriae JS1 1910; format: functional
# [10] = tested on: Micrococcus luteus; assay: Antimicrobial activity against Micrococcus luteus IFO 3333; format: functional
# [11] = tested on: Mycolicibacterium smegmatis; assay: Antimicrobial activity against Mycobacterium smegmatis ATCC 607; format: functional
# [12] = tested on: Escherichia coli; assay: Antimicrobial activity against Escherichia coli K-12; format: functional
# [13] = tested on: Micrococcus luteus; assay: Antimicrobial activity against Micrococcus luteus FDA16; format: functional
# [14] = tested on: Bacillus subtilis; assay: Antimicrobial activity against Bacillus subtilis NRRL B-558; format: functional
# [15] = tested on: Staphylococcus aureus; assay: Antimicrobial activity against Staphylococcus aureus Smith; format: functional
# [16] = tested on: Providencia rettgeri; assay: Antimicrobial activity against Providencia rettgeri GN311; format: functional
# [17] = tested on: Providencia rettgeri; assay: Antimicrobial activity against Providencia rettgeri GN466; format: functional
# [18] = tested on: Staphylococcus aureus; assay: Antimicrobial activity against methicillin-resistant Staphylococcus aureus isolate 5; format: functional
# [19] = tested on: Bacillus cereus; assay: Antimicrobial activity against Bacillus cereus ATCC 10702; format: functional
# [20] = tested on: Mycolicibacterium vaccae; assay: Antimicrobial activity against Mycobacterium vaccae ATCC 15483; format: functional
# [21] = tested on: Pseudomonas aeruginosa; assay: Antimicrobial activity against Pseudomonas aeruginosa A3; format: functional
# [22] = tested on: Corynebacterium bovis; assay: Antimicrobial activity against Corynebacterium bovis 1810; format: functional
# [23] = tested on: Klebsiella pneumoniae; assay: Antimicrobial activity against Klebsiella pneumoniae PCI602; format: functional
# [24] = tested on: Staphylococcus aureus; assay: Antimicrobial activity against Staphylococcus aureus MS9610; format: functional
# [25] = tested on: Proteus mirabilis; assay: Antimicrobial activity against Proteus mirabilis IFM OM-9; format: functional
# [26] = tested on: Micrococcus luteus; assay: Antimicrobial activity against Micrococcus luteus PCI 1001; format: functional
# [27] = tested on: Escherichia coli; assay: Antimicrobial activity against Escherichia coli NIHJ; format: functional
# [28] = tested on: Salmonella enterica subsp. enterica; assay: Antimicrobial activity against Salmonella enteritidis 1891; format: functional, Salmonella enterica subsp. enterica serovar Enteritidis
# [29] = tested on: Escherichia coli; assay: Antimicrobial activity against Escherichia coli BE1186; format: functional
# [30] = tested on: Bacillus anthracis; assay: Antimicrobial activity against Bacillus anthracis; format: functional
# [31] = tested on: Staphylococcus aureus; assay: Antimicrobial activity against methicillin-resistant Staphylococcus aureus isolate 17; format: functional
# [32] = tested on: Shigella flexneri; assay: Antimicrobial activity against Shigella flexneri 4bJS11811; format: functional
# [33] = tested on: Bacillus subtilis; assay: Antimicrobial activity against Bacillus subtilis PCI 219; format: functional
# [34] = tested on: Escherichia coli; assay: Antimicrobial activity against Escherichia coli BEM11; format: functional
# [35] = tested on: Salmonella enterica subsp. enterica; assay: Antimicrobial activity against Salmonella typhi T-63; format: functional, Salmonella enterica subsp. enterica serovar Typhi
# [36] = tested on: Mycolicibacterium smegmatis; assay: Antimicrobial activity against rifamycin-resistant Mycobacterium smegmatis ATCC 607; format: functional
# [37] = tested on: Staphylococcus aureus; assay: Antimicrobial activity against Staphylococcus aureus FDA209P; format: functional
# [38] = tested on: Pseudomonas aeruginosa; assay: Antimicrobial activity against Pseudomonas aeruginosa GN315; format: functional
# [39] = tested on: Salmonella enterica subsp. enterica; assay: Antimicrobial activity against Salmonella typhi JS11746; format: functional, Salmonella enterica subsp. enterica serovar Typhi
# [40] = tested on: Escherichia coli; assay: Antimicrobial activity against Escherichia coli K-12 MLI629; format: functional
# [41] = tested on: Mycolicibacterium smegmatis; assay: Antimicrobial activity against capreomycin-resistant Mycobacterium smegmatis ATCC 607; format: functional
# [42] = tested on: Mycolicibacterium smegmatis; assay: Antimicrobial activity against paromomycin-resistant Mycobacterium smegmatis ATCC 607; format: functional
# [43] = tested on: Mycolicibacterium smegmatis; assay: Antimicrobial activity against streptothricin-resistant Mycobacterium smegmatis ATCC 607; format: functional
# [44] = tested on: Mycolicibacterium smegmatis; assay: Antimicrobial activity against streptomycin-resistant Mycobacterium smegmatis ATCC 607; format: functional
# [45] = Toxicity in rat bearing M1 cells assessed as mortality at 40% LD50 per day; format: organism-based; conditions: m1, 40 % LD50 per day, read-out: Activity
# [46] = biological target: Procathepsin L (Homo sapiens) (UniProt P07711); assay: Inhibition of cathepsin L
# Chain of Procathepsin L (Homo sapiens) (P07711 114-333 limits assumed): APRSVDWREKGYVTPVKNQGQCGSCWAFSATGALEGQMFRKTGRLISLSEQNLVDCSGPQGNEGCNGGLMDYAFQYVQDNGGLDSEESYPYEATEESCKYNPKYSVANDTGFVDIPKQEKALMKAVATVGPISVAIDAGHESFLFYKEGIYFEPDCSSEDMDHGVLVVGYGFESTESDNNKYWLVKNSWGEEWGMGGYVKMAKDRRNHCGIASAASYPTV
# [47] = biological target: Cathepsin B (Homo sapiens, UniProt P07858); assay: Inhibition of cathepsin B
# [48] = Inhibition of Pepsin
# [49] = Inhibition of trypsin
smiles,measurement,setting,value
CC1(C)CC(CCC(=O)ONP(=O)(N2CC2)N2CC2)CC(C)(C)N1O,Activity,[1],93%
same,Activity,[2],90%
CC1(C)CC(C(=O)ONP(=O)(N2CC2)N2CC2)CC(C)(C)N1O,Activity,[1],93%
same,Activity,[2],90%
COC(=O)[C@@H]1N=C1/C=C\CCCCCCCCC/C=C(/Cl)Br,IC50,[3],13.6 µM
CCCCCCCCCCCCC/C=C/C1=N[C@@H]1C(=O)OC,IC50,[3],18.2 µM
C[C@H](CCC1NC1(C)C)[C@H]1CC[C@@]2(C)C3=C(CC[C@]12C)[C@@]1(C)CC[C@H](O)C(C)(C)[C@@H]1CC3 (mixture of isomers),Ki,[4],0.003 µM
COC1=C(C)C(=O)C2=C(C1=O)[C@@H](COC(N)=O)[C@@]1(O)[C@H]3N[C@H]3CN21 [9A-DEMETHYLMITOMYCIN A],ED50,[5],4.9 µg/mL
same,LD50,[6],7.5 µg/mL
COc1c(O)cc2c(OC)c3c(c(O)c2c1O)C(=O)CC1CC(O)(C2CN2C)CC(=O)C31O (configuration not stated) [AZICEMICIN A],MIC,[7],100 µg/mL
same,MIC,[8],> 100 µg/mL
same,MIC,[9],100 µg/mL
same,MIC,[10],12.5 µg/mL
same,MIC,[11],50 µg/mL
same,MIC,[12],> 100 µg/mL
same,MIC,[13],50 µg/mL
same,MIC,[14],> 100 µg/mL
same,MIC,[15],> 100 µg/mL
same,MIC,[16],> 100 µg/mL
same,MIC,[17],> 100 µg/mL
same,MIC,[18],> 100 µg/mL
same,MIC,[19],> 100 µg/mL
same,MIC,[20],50 µg/mL
same,MIC,[21],> 50 µg/mL
same,MIC,[22],25 µg/mL
same,MIC,[23],100 µg/mL
same,MIC,[24],> 100 µg/mL
same,MIC,[25],> 100 µg/mL
same,MIC,[26],12.5 µg/mL
same,MIC,[27],50 µg/mL
same,MIC,[28],100 µg/mL
same,MIC,[29],100 µg/mL
same,MIC,[30],100 µg/mL
same,MIC,[31],> 100 µg/mL
same,MIC,[32],50 µg/mL
same,MIC,[33],> 100 µg/mL
same,MIC,[34],100 µg/mL
same,MIC,[35],100 µg/mL
same,MIC,[36],50 µg/mL
same,MIC,[37],> 100 µg/mL
same,MIC,[38],> 100 µg/mL
same,MIC,[39],100 µg/mL
same,MIC,[40],> 100 µg/mL
COc1c(O)cc2c(OC)c3c(c(O)c2c1O)C(=O)CC1CC(O)(C2CN2)CC(=O)C31O (configuration not stated) [AZICEMICIN B],MIC,[7],100 µg/mL
same,MIC,[8],100 µg/mL
same,MIC,[9],25 µg/mL
same,MIC,[41],12.5 µg/mL
same,MIC,[10],1.56 µg/mL
same,MIC,[11],12.5 µg/mL
same,MIC,[12],100 µg/mL
same,MIC,[42],6.25 µg/mL
same,MIC,[13],6.25 µg/mL
same,MIC,[14],100 µg/mL
same,MIC,[15],100 µg/mL
same,MIC,[16],100 µg/mL
same,MIC,[17],100 µg/mL
same,MIC,[18],100 µg/mL
same,MIC,[19],100 µg/mL
same,MIC,[20],6.25 µg/mL
same,MIC,[21],> 50 µg/mL
same,MIC,[22],6.25 µg/mL
same,MIC,[23],100 µg/mL
same,MIC,[24],100 µg/mL
same,MIC,[25],100 µg/mL
same,MIC,[26],1.56 µg/mL
same,MIC,[27],25 µg/mL
same,MIC,[28],> 50 µg/mL
same,MIC,[29],100 µg/mL
same,MIC,[30],100 µg/mL
same,MIC,[31],100 µg/mL
same,MIC,[32],100 µg/mL
same,MIC,[33],100 µg/mL
same,MIC,[43],25 µg/mL
same,MIC,[44],6.25 µg/mL
same,MIC,[34],100 µg/mL
same,MIC,[35],100 µg/mL
same,MIC,[36],25 µg/mL
same,MIC,[37],100 µg/mL
same,MIC,[38],100 µg/mL
same,MIC,[39],100 µg/mL
same,MIC,[40],100 µg/mL
CC1SCCN1P(=O)(N1CC1)N1CC1 (configuration not stated) [MARCOPHAN],mortality,[45],25%
CC[C@H](NC(=O)C[C@H](O)[C@H](CC(C)C)NC(=O)[C@H](CC(C)C)NC(=O)[C@@H]1N[C@H]1C(=O)O)C(=O)N[C@H](/C=C/C(=O)O)CCCN=C(N)N [MIRAZIRIDINE A],INH,[46],1 ×10⁶ /M/s
same,IC50,[47],2.09 µM
same,INH,[47],1.5 ×10⁴ /M/s
same,INH,[48],1.4 ×10⁻⁸ M
same,INH,[49],6 ×10⁻⁵ M

# — ChEMBL document CHEMBL1154010, “Aziridine alkaloids as potential therapeutic agents” (Eur J Med Chem, 2009)
